Blank lines part the entries; values can stand above or below the molecule they belong to.
Experiments:
[1] = Binding affinity to C-terminal 6His-tagged Escherichia coli UTI89 FmlH (1 to 160 residues) expressed in Escherichia coli C600 expression system assessed as dissociation constant by biolayer interferometry assay
[2] = Inhibition of C-terminal 6His-tagged Escherichia coli UTI89 FmlH (1 to 160 residues) expressed in Escherichia coli C600 expression system using tetramethylbenzidine as substrate incubated for 1 hr by […]
[3] = target: T1, PA-I galactophilic lectin (Pseudomonas aeruginosa (strain ATCC 15692 / PAO1 / 1C / PRS 101 / LMG12228), UniProt Q05097); assay: Inhibition of FITC-labelled Pseudomonas aeruginosa LecA incubated for 1 hr by fluorescence based analysis
T1 sequence (Q05097 whole entry): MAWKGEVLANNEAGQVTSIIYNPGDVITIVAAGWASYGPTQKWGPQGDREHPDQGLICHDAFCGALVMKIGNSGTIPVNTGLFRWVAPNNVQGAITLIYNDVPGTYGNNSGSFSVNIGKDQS

[4] = target: T1, PA-I galactophilic lectin; assay: Inhibition of FITC-labelled Pseudomonas aeruginosa LecA

Structure (SMILES): O=C(O)C[C@H]1[C@@H](Oc2ccccc2[N+](=O)[O-])O[C@H](CO)[C@H](O)[C@@H]1O
Kd [1]: 10600 nM

Structure (SMILES): O=C(O)C[C@H]1[C@@H](Oc2ccccc2-c2cccc(C(=O)O)c2)O[C@H](CO)[C@H](O)[C@@H]1O
Kd [2]: 640 nM

IC50 [3]: 28 nM
Structure (SMILES): OC[C@H]1O[C@@H](OCc2cn([C@H]3[C@H](O)[C@@H](O)[C@H](c4cn([C@H]5[C@H](O)[C@@H](O)[C@H](n6cc([C@@H]7O[C@H](CO)[C@@H](n8cc(CO[C@@H]9O[C@H](CO)[C@H](O)[C@H](O)[C@H]9O)nn8)[C@H](O)[C@H]7O)nn6)O[C@@H]5CO)nn4)O[C@@H]3CO)nn2)[C@H](O)[C@@H](O)[C@H]1O

IC50 [4]: 220 nM
Structure (SMILES): OC[C@H]1O[C@@H](OCCCc2cn(CCn3cc([C@@H]4O[C@H](CO)[C@@H](n5cc([C@@H]6O[C@H](CO)[C@@H](n7cc(CCCO[C@@H]8O[C@H](CO)[C@H](O)[C@H](O)[C@H]8O)nn7)[C@H](O)[C@H]6O)nn5)[C@H](O)[C@H]4O)nn3)nn2)[C@H](O)[C@@H](O)[C@H]1O

From ChEMBL document CHEMBL5137057, “Small Carbohydrate Derivatives as Potent Antibiofilm Agents” (J Med Chem, 2022)
